Assay results as given in patent US5776959A, “Anticonvulsant and anxiolytic lactam and thiolactam derivatives” (priority 1995, dated 1998).

Experiments:
[1] = Rotorod Test for Toxicity (neurotoxicity); format: in vivo, mouse; details: mouse, in vivo, mice, ip, 30 min
Experimental: (§1) Rotorod Test for Toxicity
(§2) This test is used in mice to assess neurotoxicity. Mice were placed on a 1 in. diameter rod, which rotates at 6 rpm, and tested for maintenance of their equilibrium for 10 min. All mice were pre-tested before a test substance is given. Test compounds are dissolved in 30% polyethylene glycol and given by intraperitoneal (ip) injections in a volume of 0.01 mL/g of body weight. […] This test also measures sedative effect of the compound tested. […] 21, 1985.

[2] = system: pentylenetetrazol (PTZ) seizures in mice; test: Pentylenetetrazol Seizure Threshold Test (PTZ); format: in vivo, mouse (female CF-1); details: Mus musculus, 0.5 h, ip, 30 min before pentylenetetrazol 85 mg/kg ip, read-out: Convulsant Challenge ED50, PTZ
Experimental: Pentylenetetrazol Seizure Threshold Test (PTZ)
Anticonvulsant screening was accomplished by methods based on those of Swinyard and Woodhead using female CF-1 strain mice. […] The animals were placed in isolation cages and observed for the next 30 minutes for the presence or absence of a seizure. A threshold convulsion is defined as one episode of clonic spasms that persists for at least a 5-sec period.

neurotoxicity in mice = test: Rotorod Test for Toxicity (neurotoxicity); format: in vivo, mouse; details: ip, 30 min
Experimental: as §1, §2

[3] = system: maximal electroshock (MES) seizures in mice; test: Maximal Electroshock Seizure Test (MES); format: in vivo; details: Mus musculus, 0.5 h, ip, 30 min before electroshock 50 mA 0.2 sec, read-out: Convulsant Challenge ED50, MES
Experimental: Maximal Electroshock Seizure Test (MES)
Test compounds were dissolved in 30% polyethylene glycol and given by intraperitoneal (ip) injections in a volume of 0.01 mL/g of body weight. […] Corneal electrodes were applied to the eyes, and an electrical stimulus consisting of a 60-Hz alternating current of 50 mA was delivered for 0.2 sec. The animals were held by hand and released at the time of stimulation for observation of the seizure. Abolition of the hindleg tonic extension component was taken as the endpoint for this test.

[4] = Convulsant activity (observation of seizures in injected mice); details: mouse, in vivo, read-out: Convulsive Activity CD50
Experimental: Convulsant activity of test compounds is assessed by monitoring injected mice by monitoring seizures by observing for the onset of myoclonic twitches, generalized clonic seizures and tonic seizures.

sedation in mice = details: 100 mg/kg; cited from earlier work
GABAA receptor = test: Potentiation of GABA currents in cultured rat hippocampal neurons (GABAA receptor electrophysiology test, whole-cell patch clamp); format: cell-based, rat (Sprague-Dawley)
Experimental: Hippocampal Cell Culture Methods
Under halothane anaesthesia, 1 day old female Sprague-Dawley rats were sacrificed by rapid decapitation and the hippocampi were dissected, minced and incubated in 3 mL of Leibovitz's L-15 containing 1 mg/mL papain and 0.2 mg/mL bovine serum albumin (BSA) for 20 min. at 37° C. The papain solution was removed and the hippocampi were triturated with pasteur pipettes in growth medium. The resulting suspension was centrifuged through 2 mL of medium containing 10 mg/mL trypsin inhibitor and 10 mg/mL BSA. The cells were resuspended into growth medium and plated, 2.5×10^5 cells/dish, on a monolayer of cortical glial cells in 35 mm plastic culture dishes. The culture dishes were pretreated with poly-L-lysine followed by plating of glial cells harvested from the cortices of 2-6 day postnatal rats four days prior to neuron plating. […]
Medium in the culture dishes was replaced with an extracellular solution containing: 140 mM NaCl, 3 mM KCl, 10 mM HEPES, 5 mm MgCl2, and 5.5 mM glucose. Neurons were recorded using the whole cell configuration of the patch clamp technique, (Hamil P O, Marty A, Neher E, Sakmann B, Sakmann J F (1981) "Improved patch-clamp techniques for high resolution current recordings from cells and cell-free membrane patches" Pfluegers Arch., 391, 85-100.) and the neuronal membrane was clamped to a potential of 130 mV. […]

[5] = system: anxiety in mice (plus-maze); test: Anxiolytic plus-maze test; format: in vivo, mouse (male NIH Swiss); details: for Time spent on Plus-Maze Open Arms (% of Control): mice, ip, 30 min, 5 min test
Source text: A modification of the plus-maze test (Lister R G (1987) "The use of a plus-maze to measure anxiety in the mouse" Psychopharmacology, 92, 180-185.) was used to measure the anxiolytic activity of the compounds of this invention in mice. The plus-maze apparatus used in the test consisted of four 30 cm×5 cm arms, two of which were enclosed by 16 cm high walls while the other two were unwalled. The four arms radiated out from a 5×5 cm central platform. The entire maze was elevated 34 cm on legs. The floor parts of the maze were made of wood painted black. The walls were clear plexiglass.
Male mice of the NIH Swiss strain are used in the test which is carried out in a room with no distractions. Test compounds were dissolved in 30% polyethylene glycol and given by intraperitoneal (ip) injections in a volume of 0.01 mL/g of body weight. […] During each 5 minute test, the number of entries to open arms and closed arms and the amount of time spent on each were recorded. A mouse has entered an arm when all four feet are on the arm. Each mouse was used only once. The anxiolytic dose of a test compound is that dose which causes a significant increase in the amount of time the test mouse spends in the open arms of the plus-maze in comparison to the amount of time a control mouse not receiving a test compound spends in the open arms of the maze.

convulsant seizures = details: in vivo; cited from earlier work

| SMILES | TD50 at 0.5 h [1] [mg/kg] | ED50 [2] [mg/kg] | ED50 [3] [mg/kg] | other results |
| --- | --- | --- | --- | --- |
| CCC1(C)CCN(C)C1=O (stereo not drawn) [1,3-Dimethyl-3-ethyl-2-pyrrolidinone] | 520 | 259 |  |  |
| O=C1CCCCN1 [2-Piperidinone, reference compound] | > 600 | > 600 |  |  |
| O=C1CCCN1 [2-Pyrrolidinone, reference compound] |  | > 900 | > 600 | Toxicity TD50 (neurotoxicity in mice): > 900 mg/kg |
| CC1(C)CNC(=O)C1(C)C [3,3,4,4-Tetramethyl-2-pyrrolidinone] |  |  |  | CD50 (convulsant dose, 50%) [4]: 32 mg/kg |
| CCC1(CC)CCCNC1=O [3,3-Diethyl-2-piperidinone] | 177 | 39 | 56 | sedative activity reported in literature (sedation in mice): weak sedative activity |
| CCC1(CC)CCNC1=O [3,3-Diethyl-2-pyrrolidinone] |  | 46 | 174 | % Potentiation Relative to Control (N) (GABAA receptor; compound 1 mM, 3 μM GABA, mean ± SEM, percent of control response (100%)): 274 ± 64%; enhancement of GABA-mediated chloride ion currents (GABAA receptor; cultured rat hippocampal neurons): more effectively than the previously described α-ethyl-α-methyl-γ-thiobutyrolactone; Toxicity TD50 (neurotoxicity in mice): 260 mg/kg; anxiolytic activity ([5]; compared to α-ethyl-α-methyl-γ-thiobutyrolactone, Table 3): significantly stronger anxiolytic activity; Time spent on Plus-Maze Open Arms (% of Control) ([5]; dose 100 mg/kg): 179%; Time spent on Plus-Maze Open Arms (% of Control) ([5]; dose 175 mg/kg): 253% |
| CCC1(CC)CC(C)(C)NC1=O [3,3-Diethyl-5,5-dimethyl-2-pyrrolidinone] |  |  |  | CD50 (convulsant dose, 50%) [4]: 75 mg/kg |
| CC1(C)CCNC1=O [3,3-Dimethyl-2-pyrrolidinone, 3,3-dimethyl-2-pyrrolidinone, reference compound] | 900 | 708 | > 600 | anticonvulsant activity reported in literature (convulsant seizures): no anticonvulsant activity |
| CCC1CCCNC1=O (stereo not drawn) [3-Ethyl-2-Piperidinone, reference compound] | 382 | 339 |  |  |
| CCC1(C)CCCNC1=O (stereo not drawn) [3-Ethyl-3-Methyl-2-Piperidinone, 3-ethyl-3-methyl-2-piperidinone] | 382 | 162 | 198 |  |
| CCC1(Cc2ccccc2)CCCNC1=O (stereo not drawn) [3-Ethyl-3-phenylmethyl-2-piperidinone, 3-ethyl-3-phenylmethyl-2-piperidinone] | 102 | 61 | 79 |  |
| CCC1CC(C)(C)NC1=O (stereo not drawn) [3-Ethyl-5,5-dimethyl-2-pyrrolidinone] |  |  |  | CD50 (convulsant dose, 50%) [4]: 106 mg/kg |
| CC1CCCNC1=O (stereo not drawn) [3-Methyl-2-Piperidinone, reference compound] | > 600 | > 600 | > 600 |  |
| CC1CCNC1=O (stereo not drawn) [3-Methyl-2-pyrrolidinone, reference compound] | ~900 | > 900 | > 750 |  |
| CC1(Cc2ccccc2)CCCNC1=O (stereo not drawn) [3-Methyl-3-phenylmethyl-2-piperidinone, 3-methyl-3-phenylmethyl-2-piperidinone] | 131 | 56 | 49 |  |
| O=C1NCCCC1Cc1ccccc1 (stereo not drawn) [3-Phenylmethyl-2-piperidinone, 3-phenylmethyl-2-piperidinone] | 294 | 85 | 42 |  |
| O=C1NCCC1Cc1ccccc1 (stereo not drawn) [3-Phenylmethyl-2-pyrrolidinone, 3-phenylmethyl-2-pyrrolidinone] |  | 71 | 41 | Toxicity TD50 (neurotoxicity in mice): 144 mg/kg |
| CC1(C)CNC(=O)C1 [4,4-Dimethyl-2-pyrrolidinone, reference compound] | > 600 | 600 |  |  |
| CCC1(C)CNC(=O)C1 (stereo not drawn) [4-Ethyl-4-Methyl-2-pyrrolidinone, 4-ethyl-4-methyl-2-pyrrolidinone, reference compound] | > 300 | 327 | > 300 | anticonvulsant activity reported in literature (convulsant seizures): much less active |
| CC1(C)CCC(=O)N1 [5,5-Dimethyl-2-pyrrolidinone] |  |  |  | CD50 (convulsant dose, 50%) [4]: 387 mg/kg |
| CC1(C)CCSC1=O [α,α-dimethyl-y-thiobutyrolactone] |  | > 500 |  |  |
